Patent US12172989B2, “Histone acetyltransferase (HAT) inhibitor and use thereof” (SHANGHAI INSTITUTE OF MATERIA MEDICA, CHINESE ACADEMY OF …, priority 2018, dated 2024)

Experiments:
[1] = system: human mantle cell lymphoma (MCL) cell line MAVER-1; experiment: Cell growth inhibition experiment (CellTiter-Glo), MAVER-1; type: cell-based; details: MAVER-1 cells treated with the compound for 5 days
Method: The human mantle cell lymphoma (MCL) cell line MAVER-1 (from ATCC, CRL-3008) was cultured with RPMI 1640 medium (Gibco, available from Life Technologies Corporation, 22400-089) containing […] (Gibco, available from Life Technologies, 10099-141) and 1% antibiotics (penicillin and streptomycin, available from Life Technologies Corporation, 10378016) in a CO2 cell incubator (37° C., 5% CO2). In the cell growth inhibition experiment, MAVER-1 cells in exponential growth phase were seeded on a 96-well plate (purchased from Corning Company, 3599) in a volume of 100 μL/well and a cell density of 1*10E5 cells/well. After seeded, the plate was placed in a CO2 incubator to culture for 1 h. 100 μL of a compound at different concentrations diluted in 3-fold gradient or DMSO were added in a 96-well plate containing the cells. The final concentration of the compound ranges from 0.3 to 10000 nM, and the final concentration of DMSO is 0.05% as control group. The cells were treated with the compound for 5 days. Cell viability was measured using CellTiter-Glo reagent (purchased from Promega, G7572): the cells treated with the compound for 5 days was added with CellTiter-Glo reagent at 20 μL/well, incubated at room temperature for 10 min, transferred to a white 96-well plate (OptiPlate-96, purchased from PerkinElmer, 605299) by 80 μL. Subsequently, the luminescence signal was detected by using a multifunctional microplate reader EnVision (purchased from PerkinElmer) at a wavelength of 400-700 nm. The data was analyzed by using GraphPad Prism 5.0 software to obtain IC50.

[2] = system: Human castration resistant prostate cancer cell line LNCaP clone FGC; experiment: Cell growth inhibition experiment (CellTiter-Glo), LNCaP clone FGC; type: cell-based; details: LNCaP clone FGC cells treated with the compound for 5 days
Method: (§1) Human castration resistant prostate cancer cell line 22Rv1 and LNCaP clone FGC (22Rv1 cell line was from ATCC, CRL-2505, LNCaP clone FGC cell line was purchased from Cell Bank of the Chinese Academy of Sciences) were cultured with RPMI 1640 medium (Gibco, available from Life Technologies Corporation, 22400-089) containing 10% fetal bovine serum (Gibco, available from Life Technologies, 10099-141) and 1% antibiotics (penicillin and streptomycin, available from Life Technologies Corporation, 10378016) in a CO2 cell incubator (37° C., 5% CO2). In the cell growth inhibition experiment, 22Rv1 and LNCaP clone FGC cells in exponential growth phase were seeded on a 96-well plate (purchased from Corning Company, 3599) with a volume of 150 μL/well and a cell density of 1,500 cells/well. After seeded, the plate was placed in a CO2 incubator to incubate overnight to allow the cells to adhere. On the next day, 50 μL of a compound at different concentrations diluted in 3-fold gradient or DMSO were added in a 96-well plate containing the cells. The final concentration of the compound ranges from 0.3 to 10000 nM, and the final concentration of DMSO is 0.05% as control group. The cells were treated by the compound for 5 days. Cell viability was measured using CellTiter-Glo reagent (purchased from Promega, G7572): the cell treated with the compound for 5 days was added with CellTiter-Glo reagent at 40 μL/well, incubated at room temperature for 10 min, transferred to a white 96-well plate (OptiPlate-96, purchased from PerkinElmer, 605299) by 70 μL. Subsequently, the luminescence signal was detected using a multifunctional microplate reader EnVision (purchased from PerkinElmer) at a wavelength of 400-700 nm. The data was analyzed by using GraphPad Prism 5.0 software to obtain IC50.

[3] = system: Human castration resistant prostate cancer cell line 22Rv1; experiment: Cell growth inhibition experiment (CellTiter-Glo), 22Rv1; type: cell-based; details: 22Rv1 cells treated with the compound for 5 days
Method: as §1

[4] = target: T1, histone acetyltransferase p300 (Homo sapiens, UniProt Q09472); experiment: Histone acetyltransferase (p300) activity assay (radioisotope, [3H]-Ac-CoA); type: biochemical; details: p300 0.05 nM; histone peptide 600 nM, [3H]-Ac-CoA 250 nM; 60 min at room temperature; read-out: Inhibition rate IC50
T1 construct: purchased BPS Corporation 50071
T1 sequence (Q09472 1284-1673 limits assumed): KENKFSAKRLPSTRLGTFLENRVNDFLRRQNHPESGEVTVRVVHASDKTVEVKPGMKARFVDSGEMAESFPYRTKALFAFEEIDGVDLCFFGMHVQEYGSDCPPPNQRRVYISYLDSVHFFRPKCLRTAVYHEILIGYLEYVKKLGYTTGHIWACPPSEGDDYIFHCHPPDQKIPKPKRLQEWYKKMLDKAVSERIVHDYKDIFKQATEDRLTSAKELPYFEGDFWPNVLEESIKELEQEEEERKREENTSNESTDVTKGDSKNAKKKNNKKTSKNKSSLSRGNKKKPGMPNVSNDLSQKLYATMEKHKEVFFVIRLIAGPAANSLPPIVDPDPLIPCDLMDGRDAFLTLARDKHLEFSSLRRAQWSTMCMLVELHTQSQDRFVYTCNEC
Method: The reaction was finally terminated with Ac-CoA (Sigma, Cat. No. A2056) without isotope labeling. If the activity of the acetyltransferase p300 was inhibited, the isotope signal cannot be detected on the substrate polypeptide. Therefore, the inhibitory activity of the compound against the acetyltransferase p300 was evaluated.
In the enzyme reaction system, 200 nL of a diluted compound (100% DMSO) was first transferred to a test plate using Echo, where the final concentration of the compound in the enzyme reaction system ranges from 0.25 to 5000 nM. Then 10 μL/well of p300 protein (final concentration of 0.05 nM) was transferred therein, and incubated with the compound for 15 min at room temperature. Then 10 μL/well of a substrate mixture (final concentrations of histone peptide and [^3H]—Ac-CoA were 600 nM and 250 nM, respectively) was added to start the enzyme-catalyzed reaction, and incubated at room temperature for 60 min. Then 10 µL/well of a 250 μM cold Ac-CoA solution was added to stop the reaction. Finally 25 μL/well of the reaction solution was transferred to a 384-well Flashplate (Perkin Elmer, Cat. No. SMP410A001PK), and incubated at room temperature for 1 h. The resultant was washed with double distilled water+0.1% Tween-20 three times. The signal value was read by using Microbeta. The data was analyzed by using GraphPad Prism 5.0 software to obtain IC50.

Row | IC50 [1] | IC50 [2] | IC50 [3] | IC50 ([1]; Homo sapiens, Maver1, 120 h) | IC50 ([2]; Homo sapiens, 120 h) | IC50 ([3]; Homo sapiens, 120 h) | IC50 [4] | Compound
1 | 206 nM | 215 nM | 384 nM |  |  |  |  | CNC(=O)Nc1ccc2c(c1)CC[C@@]21OC(=O)N(CC(=O)N(Cc2ccc(F)cc2)[C@@H](C)C(F)(F)F)C1=O [Example A-485, reference compound]
2 |  |  |  | 112 nM | 164 nM | 258 nM |  | CNC(=O)Nc1ccc2c(c1)CCC21OC(=O)N(CC(=O)N2Cc3ccccc3CCC2C)C1=O (stereo not drawn) [SYY-B003]
3 |  |  |  | 104 nM | 168 nM | 345 nM | 12 nM | CNC(=O)Nc1ccc2c(c1)CC[C@]21OC(=O)N(CC(=O)N2Cc3ccccc3CC[C@H]2C)C1=O [SYY-B015-1]
4 |  |  |  | 18 nM | 15 nM | 33 nM | 3.7 nM | CNC(=O)Nc1ccc2c(c1)CC[C@@]21OC(=O)N(CC(=O)N2Cc3ccccc3CC[C@H]2C)C1=O [SYY-B015-2]
5 |  |  |  | 49 nM | 73 nM | 88 nM | 3.3 nM | CNC(=O)Nc1ccc2c(c1)CC[C@]21OC(=O)N(CC(=O)N2Cc3ccccc3CC[C@H]2C2CC2)C1=O [SYY-B018-1]
6 |  |  |  | 6 nM | 6 nM | 5 nM | 0.67 nM | CNC(=O)Nc1ccc2c(c1)CC[C@@]21OC(=O)N(CC(=O)N2Cc3ccccc3CC[C@H]2C2CC2)C1=O [SYY-B018-2]
7 |  |  |  | 40 nM | 186 nM | 205 nM | 2.7 nM | CNC(=O)Nc1ccc2c(c1)CC[C@]21OC(=O)N(CC(=O)N2Cc3ccccc3CC[C@H]2C(C)C)C1=O [SYY-B019-1]
8 |  |  |  | 17 nM | 9 nM | 5 nM | 2 nM | CNC(=O)Nc1ccc2c(c1)CC[C@@]21OC(=O)N(CC(=O)N2Cc3ccccc3CC[C@H]2C(C)C)C1=O [SYY-B019-2]
9 |  |  |  | 32 nM | 63 nM | 107 nM | 3 nM | CNC(=O)Nc1ccc2c(c1)CC[C@]21OC(=O)N(CC(=O)N2Cc3ccc(F)cc3CC[C@H]2C)C1=O [SYY-B021-1]
10 |  |  |  | 22 nM | 13 nM | 24 nM | 3 nM | CNC(=O)Nc1ccc2c(c1)CC[C@@]21OC(=O)N(CC(=O)N2Cc3ccc(F)cc3CC[C@H]2C)C1=O [SYY-B021-2]
11 |  |  |  | 23 nM | 65 nM | 50 nM | 4 nM | CCC[C@@H]1CCc2ccccc2CN1C(=O)CN1C(=O)O[C@]2(CCc3cc(NC(=O)NC)ccc32)C1=O [SYY-B023-1]
12 |  |  |  | 12 nM | 4 nM | 3 nM | 2 nM | CCC[C@@H]1CCc2ccccc2CN1C(=O)CN1C(=O)O[C@@]2(CCc3cc(NC(=O)NC)ccc32)C1=O [SYY-B023-2]
13 |  |  |  | 116 nM | 53 nM | 77 nM | 24 nM | CCC[C@H]1CCc2ccccc2CN1C(=O)CN1C(=O)O[C@@]2(CCc3cc(NC(=O)NC)ccc32)C1=O [SYY-B024-2]
14 |  |  |  | 44 nM | 67 nM | 79 nM | 1.6 nM | CNC(=O)Nc1ccc2c(c1)CC[C@]21OC(=O)N(CC(=O)N2Cc3ccc(F)cc3CC[C@H]2C2CC2)C1=O [SYY-B025-1]
15 |  |  |  | 9 nM | 11 nM | 9 nM | 1.1 nM | CNC(=O)Nc1ccc2c(c1)CC[C@@]21OC(=O)N(CC(=O)N2Cc3ccc(F)cc3CC[C@H]2C2CC2)C1=O [SYY-B025-2]
16 |  |  |  | 254 nM | 132 nM | 358 nM | 18 nM | CNC(=O)Nc1ccc2c(c1)CC[C@@]21OC(=O)N(CC(=O)N2Cc3ccc(F)cc3CC[C@@H]2C2CC2)C1=O [SYY-B026-2]
17 |  |  |  | 13 nM | 14 nM | 23 nM | 3.1 nM | CNC(=O)Nc1ccc2c(c1)CC[C@@]21OC(=O)N(CC(=O)N2Cc3ccccc3CC[C@H]2C(F)(F)F)C1=O [SYY-B027-2]
18 |  |  |  | 66 nM | 82 nM | 146 nM | 4.1 nM | CNC(=O)Nc1ccc2c(c1)CC[C@]21OC(=O)N(CC(=O)N2Cc3cc(F)ccc3OC[C@H]2C2CC2)C1=O [SYY-B029-1]
19 |  |  |  | 15 nM | 13 nM |  | 1.4 nM | CNC(=O)Nc1ccc2c(c1)CC[C@@]21OC(=O)N(CC(=O)N2Cc3cc(F)ccc3OC[C@H]2C2CC2)C1=O [SYY-B029-2]
20 |  |  |  | 61 nM | 91 nM | 210 nM | 1.8 nM | CNC(=O)Nc1ccc2c(c1)CC[C@]21OC(=O)N(CC(=O)N2Cc3ccc(F)cc3CC[C@H]2C(F)(F)F)C1=O [SYY-B031-1]
21 |  |  |  | 18 nM | 66 nM | 23 nM | 1.9 nM | CNC(=O)Nc1ccc2c(c1)CC[C@@]21OC(=O)N(CC(=O)N2Cc3ccc(F)cc3CC[C@H]2C(F)(F)F)C1=O [SYY-B031-2]
22 |  |  |  |  | < 100 nM | < 100 nM | 3.4 nM | Cn1cc(-c2ccc3c(c2)CC[C@@]32OC(=O)N(CC(=O)N3Cc4ccc(F)cc4CC[C@H]3C3CC3)C2=O)cn1 [SYY-B041-2]
